Measurements published in ChEMBL document CHEMBL3227957, “(+)-Isobutaclamol: a crystallographic, pharmacological, and biochemical study” (J Med Chem, 1979).
pIC50: −log10 of the molar value.

What was measured:
Rattus norvegicus [1] = test: Inhibition of (+)-amphetamine-induced stereotyped behavior in ip dosed rat administered 15 mins prior to (+)-amphetamine challenge measured after 15 mins; assay type: functional; details: read-out: MED
Rattus norvegicus [2] = species on record: Rattus norvegicus; test: Displacement of [3H]haloperidol from rat striatum dopamine receptor at 1000 nM
Bos taurus = species on record: Bos taurus; test: Displacement of [3H]spiperone from calf striatum dopamine receptor at 1000 nM
[3] = Displacement of [3H]spiperone from calf striatum dopamine receptor; parameters: species or system Bos taurus
[4] = Displacement of [3H]haloperidol from rat striatum dopamine receptor

inhibition (Rattus norvegicus [2]) [%]	inhibition (Bos taurus) [%]	pIC50 [3]	pIC50 [4]	Structure (SMILES)	minimal effective dose (Rattus norvegicus [1]) [mg/kg]
0	0			Br.CC(C)(C)[C@@]1(O)CCN2C[C@@H]3Cc4ccccc4Cc4cccc(c43)[C@H]2C1	> 25
		9.10	9.10	Br.CC(C)(C)[C@]1(O)CCN2C[C@H]3Cc4ccccc4Cc4cccc(c43)[C@@H]2C1	0.31
		8.77	8.77	CC(C)(C)[C@]1(O)CCN2C[C@H]3Cc4ccccc4Cc4cccc(c43)[C@@H]2C1.Cl (racemic)	0.62
